Results on 25 molecules are retold here after ChEMBL document CHEMBL4811247, “Small molecule and macrocyclic pyrazole derived inhibitors of myeloperoxidase (MPO)” (Bioorg Med Chem Lett, 2021).

Structures are written as SMILES. A value given as a limit tells only on which side of the number the result lay.

One data set has as its target T1, Thyroid peroxidase (Homo sapiens, UniProt P07202).
T1 sequence (P07202 whole entry): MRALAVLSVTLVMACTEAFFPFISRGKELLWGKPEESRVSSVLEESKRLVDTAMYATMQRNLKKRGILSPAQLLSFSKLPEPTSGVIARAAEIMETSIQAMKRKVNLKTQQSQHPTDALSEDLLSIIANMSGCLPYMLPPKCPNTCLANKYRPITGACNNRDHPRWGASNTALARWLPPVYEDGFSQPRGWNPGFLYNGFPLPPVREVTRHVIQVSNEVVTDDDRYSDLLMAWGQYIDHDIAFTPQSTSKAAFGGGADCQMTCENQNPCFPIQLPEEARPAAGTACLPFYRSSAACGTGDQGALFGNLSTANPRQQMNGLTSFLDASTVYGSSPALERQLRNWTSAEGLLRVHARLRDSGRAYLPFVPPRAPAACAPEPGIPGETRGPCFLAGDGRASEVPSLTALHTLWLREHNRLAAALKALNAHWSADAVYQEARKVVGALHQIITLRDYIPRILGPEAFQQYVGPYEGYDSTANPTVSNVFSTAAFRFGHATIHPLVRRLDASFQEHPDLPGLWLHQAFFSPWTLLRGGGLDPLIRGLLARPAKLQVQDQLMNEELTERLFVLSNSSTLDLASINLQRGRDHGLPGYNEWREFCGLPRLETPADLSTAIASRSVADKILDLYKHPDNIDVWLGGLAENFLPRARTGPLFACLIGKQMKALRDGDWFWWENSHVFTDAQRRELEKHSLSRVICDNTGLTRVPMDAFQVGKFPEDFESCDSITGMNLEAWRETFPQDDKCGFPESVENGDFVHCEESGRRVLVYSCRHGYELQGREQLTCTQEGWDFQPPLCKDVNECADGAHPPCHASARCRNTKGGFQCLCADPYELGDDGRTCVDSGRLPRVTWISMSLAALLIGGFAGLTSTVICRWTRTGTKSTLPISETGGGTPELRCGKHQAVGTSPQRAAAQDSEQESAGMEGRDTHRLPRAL
Nature of the data set: Inhibition of C-terminal hexaHis-tagged TPO (unknown origin) expressed in Trichoplusia ni insect cells using 3-iodo tyrosine as substrate preincubated for 10 mins followed by substrate and H2O2 addition and further incubated for 15 mins.

The target in another data set is Cytochrome P450 3A4 (Homo sapiens, UniProt P08684). Briefly: Time dependent inhibition of CYP3A4 (unknown origin) measured at 30 mins. The format is ADME.
Another data set concerns the target CYP3A4 (Homo sapiens, UniProt P08684). Nature of the data set: Ratio of IC50 for time dependent inhibition of CYP3A4 (unknown origin) measured at 5 mins to IC50 for time dependent inhibition of CYP3A4 (unknown origin) measured at 30 mins. The conditions noted are these: read-out: Ratio IC50.
Data set [1] addresses T2, Myeloperoxidase (Homo sapiens, UniProt P05164).
T2 sequence (P05164 whole entry): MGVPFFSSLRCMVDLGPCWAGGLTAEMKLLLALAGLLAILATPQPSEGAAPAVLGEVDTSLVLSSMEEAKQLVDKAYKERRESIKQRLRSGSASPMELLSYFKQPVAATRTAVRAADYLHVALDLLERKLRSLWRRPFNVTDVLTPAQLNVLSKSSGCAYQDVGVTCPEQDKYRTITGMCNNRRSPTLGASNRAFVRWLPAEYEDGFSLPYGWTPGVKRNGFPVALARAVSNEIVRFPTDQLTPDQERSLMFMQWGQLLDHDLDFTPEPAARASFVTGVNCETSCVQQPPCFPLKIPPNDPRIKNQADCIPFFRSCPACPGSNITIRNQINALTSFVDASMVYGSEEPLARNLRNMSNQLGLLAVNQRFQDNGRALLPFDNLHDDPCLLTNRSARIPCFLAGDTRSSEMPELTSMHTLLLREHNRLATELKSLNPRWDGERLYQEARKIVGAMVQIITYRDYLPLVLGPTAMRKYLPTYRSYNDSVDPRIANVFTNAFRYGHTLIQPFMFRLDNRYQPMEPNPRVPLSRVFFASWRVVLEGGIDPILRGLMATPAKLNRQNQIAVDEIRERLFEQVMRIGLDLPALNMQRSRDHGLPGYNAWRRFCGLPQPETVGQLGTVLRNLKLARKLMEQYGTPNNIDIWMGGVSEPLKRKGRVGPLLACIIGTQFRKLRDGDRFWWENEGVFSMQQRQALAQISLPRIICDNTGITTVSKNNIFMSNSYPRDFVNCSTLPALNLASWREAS
Description: Inhibition of MPO (unknown origin) chlorination activity incubated for 10 mins followed by NaCl addition by aminophenyl fluorescein assay

For the next data set, the species on record is Homo sapiens. Briefly: Selectivity ratio of IC50 for MPO (unknown origin) chlorination activity incubated for 10 mins followed by NaCl addition by aminophenyl fluorescein assay to IC50 for C-terminal hexaHis-tagged TPO (unknown origin) expressed in Trichoplusia ni insect cells using 3-iodo tyrosine as substrate preincubated for 10 mins followed by substrate and H2O2 addition and further incubated for 15 mins.

A short description of data set [2]: Protein binding in human plasma. The data set is classed as ADME, cell-free. Particulars: read-out: PPB (converted).
Data set [3] in a line: Half life in human liver microsomes. The format is ADME, Microsome.
Data set [4] concerns the target T2, Myeloperoxidase. Nature of the data set: Inhibition of PMA-induced MPO in human Neutrophil incubated for 3 mins by luminometry. The format is tissue-based.
Data set [5] in a line: Half life in mouse at 1 mg/kg, iv. The format is ADME, organism-based. The conditions noted are these: in vivo.
A short description of data set [6]: Volume of distribution at steady state in mouse at 1 mg/kg, iv. The format is ADME, organism-based. The conditions noted are these: in vivo, read-out: Vdss.
Data set [7] is described as follows: Clearance in mouse at 1 mg/kg, iv. The format is ADME, organism-based. The conditions noted are these: in vivo.
Data set [8] is described as follows: Permeability of the compound by PAMPA method. The format is ADME.

Sequence of CYP3A4 (P08684 whole entry): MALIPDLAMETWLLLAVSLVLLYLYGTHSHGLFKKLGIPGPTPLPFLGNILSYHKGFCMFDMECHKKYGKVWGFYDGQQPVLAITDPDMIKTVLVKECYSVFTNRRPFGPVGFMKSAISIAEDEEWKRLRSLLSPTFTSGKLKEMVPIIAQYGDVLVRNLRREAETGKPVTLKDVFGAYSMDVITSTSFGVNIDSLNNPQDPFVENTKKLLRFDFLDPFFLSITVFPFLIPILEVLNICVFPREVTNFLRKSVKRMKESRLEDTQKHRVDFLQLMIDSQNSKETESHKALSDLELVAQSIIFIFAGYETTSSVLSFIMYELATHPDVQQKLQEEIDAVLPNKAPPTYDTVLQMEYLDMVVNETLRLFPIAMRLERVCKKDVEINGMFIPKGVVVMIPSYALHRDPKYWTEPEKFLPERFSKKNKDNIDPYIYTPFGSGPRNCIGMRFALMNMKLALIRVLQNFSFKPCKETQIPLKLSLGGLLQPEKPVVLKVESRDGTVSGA
Sequence of Cytochrome P450 3A4 (P08684 whole entry): as above

For `Nc1cc(Cc2ccn(Cc3cccc(Oc4cccc5c4CNC5)c3)n2)c2nn[nH]c2n1`, the IC50 against Thyroid peroxidase came out at 1700 nM; against Cytochrome P450 3A4, 140 nM; against Myeloperoxidase [1], 26 nM. On CYP3A4, the IC50 shift was determined as 3.3.
The corresponding values for `Nc1cc(Cc2ccn(-c3ccccn3)n2)c2nn[nH]c2n1` are 2000 nM, 210 nM, 54 nM and 3.2.
With `Nc1cc(C2CCNC34CCC(c5ccccc5)(CC3)[C@H](C4)Oc3cccc(c3)Cn3cc2cn3)c2nn[nH]c2n1` (stereo partly drawn), the IC50 at Myeloperoxidase [1] was determined as 7 nM.
On to `Nc1cc(Cc2ccn(Cc3ccc4ccccc4c3)n2)c2nn[nH]c2n1`, for which the IC50 on Thyroid peroxidase amounted to 1100 nM; against Cytochrome P450 3A4 it was 40 nM; on Myeloperoxidase [1] it was 52 nM. Also, the IC50 shift at CYP3A4 worked out at 2.4.
The like results for `Nc1cc(Cc2ccn(Cc3ccccc3)n2)c2nn[nH]c2n1` were, in that order, 2300 nM, 310 nM, 120 nM and 3.2.
On to `Nc1cc([C@H]2CCN[C@H]3C[C@H](Cc4ccccc4)[C@@H](C3)Oc3cccc(c3)Cn3cc2cn3)c2nn[nH]c2n1`, for which, on Myeloperoxidase [1], 5 nM corresponded to half-maximal inhibition (IC50).
For the molecule `Nc1cc(Cc2ccn(-c3ccc(F)cc3)n2)c2nn[nH]c2n1`, the results for the IC50 against Thyroid peroxidase, at Cytochrome P450 3A4 and on Myeloperoxidase [1] were 700 nM, 110 nM and 53 nM, respectively. In addition, at CYP3A4, the IC50 shift amounted to 3.3.
The like results for `Nc1cc(Cc2ccn(-c3ccccc3)n2)c2nn[nH]c2n1` were, in that order, 640 nM, 210 nM, 55 nM and 2.7.
Take `Nc1cc(Cc2ccn(Cc3ccc4c(c3)CCNC4)n2)c2nn[nH]c2n1`: the IC50 against Thyroid peroxidase turned out to be 6700 nM; on Cytochrome P450 3A4, 7000 nM; against Myeloperoxidase [4], 5 µM; against Myeloperoxidase [1] it was 58 nM. For the same molecule, the Ratio IC50 in the data set filed under Homo sapiens came to 120. In addition, at CYP3A4, the IC50 shift was 2.8. Also, the fraction unbound in data set [2] was 0.5. Also, the half-life in data set [3] is over 120 min.
For `Nc1cc(Cc2ccn(Cc3cccc(Oc4ccccc4)c3)n2)c2nn[nH]c2n1`, the figures for the IC50 against Thyroid peroxidase, on Cytochrome P450 3A4 and against Myeloperoxidase [1] were 1100 nM, 11 nM and 44 nM, respectively. The IC50 shift on CYP3A4 came out at 2.9.
With `Nc1cc(C2CCNCc3cccc(c3)COc3cccc(c3)Cn3cc2cn3)c2nn[nH]c2n1` (stereo not drawn), at Myeloperoxidase [1], the IC50 is 25 nM.
Same read-out and setting: the result for `Nc1cc(C2CCNCC3(CCCC3)COc3cccc(c3)Cn3cc2cn3)c2nn[nH]c2n1` (stereo not drawn) reads 26 nM.
On to `Nc1cc(Cc2ccn(Cc3cccc(O[C@H]4CCNC4)c3)n2)c2nn[nH]c2n1`, for which the IC50 came to 14000 nM at Thyroid peroxidase, 13000 nM on Cytochrome P450 3A4 and 46 nM against Myeloperoxidase [1]. Also, at CYP3A4, the IC50 shift is 1.6.
As for `Nc1cc(Cc2ccn(Cc3cccc(C4CCNCC4)c3)n2)c2nn[nH]c2n1`, the IC50 against Thyroid peroxidase was 21000 nM; against Cytochrome P450 3A4, 3300 nM; against Myeloperoxidase [4] it was 2.4 µM; at Myeloperoxidase [1], 100 nM. The IC50 shift on CYP3A4 was 4.3. For the same molecule, the fraction unbound in [2] is 0.2. For the same molecule, the half-life in data set [3] was over 120 min; in data set [5] it was 72 min. Moreover, the Vd in data set [6] came to 0.2 L/kg. Moreover, in data set [7], the clearance stood at 2.6 mL/min/kg. The permeability result in [8] is listed as “Impermeable”.
As to `Nc1cc(C2CCNCc3cccc(c3)OCc3cccc(c3)Cn3cc2cn3)c2nn[nH]c2n1` (stereo not drawn), on Myeloperoxidase [1], the midpoint of inhibition, the IC50, lay at 8 nM.
The same measure, in the same setting: the result for `Nc1cc(C2CCNCCc3cccc(c3)-c3cccc(c3)Cn3cc2cn3)c2nn[nH]c2n1` (stereo not drawn) reads 21 nM; that for `Nc1cc(C2CCNCCc3cccc(c3)OCc3cccc(c3)Cn3cc2cn3)c2nn[nH]c2n1` (stereo not drawn), 17 nM; that for `Nc1cc(C2CCNCC(=O)N(CCc3ccccc3)Cc3cccc(c3)Cn3cc2cn3)c2nn[nH]c2n1` (stereo not drawn), 29 nM.
Take `Nc1cc(Cc2ccn(Cc3cccc(-c4ccccc4)c3)n2)c2nn[nH]c2n1`: the IC50 turned out to be 1100 nM against Thyroid peroxidase, 17 nM against Cytochrome P450 3A4 and 55 nM against Myeloperoxidase [1]. Also, the IC50 shift at CYP3A4 worked out at 2.8.
On to `Nc1cc(C2CCNCc3cccc(c3)Oc3cccc(c3)Cn3cc2cn3)c2nn[nH]c2n1` (stereo not drawn), for which 36 nM corresponded to half-maximal inhibition on Myeloperoxidase [1] (IC50).
`Nc1cc(C2CCNCCc3cccc(c3)Oc3cccc(c3)Cn3cc2cn3)c2nn[nH]c2n1` (stereo not drawn) registered an IC50 at Myeloperoxidase [1] of 14 nM.
For `Nc1cc(Cc2ccn(Cc3ccc4cnccc4c3)n2)c2nn[nH]c2n1`, the IC50 amounted to 1800 nM against Thyroid peroxidase, 210 nM on Cytochrome P450 3A4 and 140 nM against Myeloperoxidase [1]. Besides, the IC50 shift at CYP3A4 is 4.1.
The like results for `Nc1cc(Cc2ccn(Cc3cccc(Cc4ccccc4)c3)n2)c2nn[nH]c2n1` were, in that order, 1900 nM, 37 nM, 39 nM and 2.8.
The corresponding values for `Nc1cc(Cc2ccn(-c3cccc(-c4ccccc4)c3)n2)c2nn[nH]c2n1` are 710 nM, 7.1 nM, 85 nM and 2.4.
The molecule `Nc1cc(C2CCNC3CCC(CC3)COc3cccc(c3)Cn3cc2cn3)c2nn[nH]c2n1` (stereo not drawn) showed an IC50 against Myeloperoxidase [1] of 31 nM.

As usually defined, the IC50 is the point on the concentration scale where inhibition reaches its midpoint. As a reminder, the half-life is the time in which the quantity being followed falls by half. High values mean slow loss, low ones fast loss. One may read the clearance as a measure of how efficiently the substance is removed, as volume per time. A low value points to inefficient removal.
